Assays:
PKR(R510Q) = PKR(R510Q) (Homo sapiens, UniProt P30613, R510Q); assay: Luminescence Biochemical Assay (Kinase Glo Plus), PKR R510Q; settings: without FBP; for AC50: read-out: D—AC50 LUM KGP woFBP AC50 μM gmean
Method: (§1) In some embodiments, a PKR Activating Compound refers to a compound having one or more characteristics when tested according to the following Luminescence Assay Protocol of Example 3 performed with wild type (wt) PKR and/or any one or more of G332S mutant form of PKR or R510Q mutant form of PKR: (1) an AC50 value of less than 40 μM (e.g., compounds with AC50 values of “+”, “++”, or “+++” in Table 2); (2) a maximum % Fold (MAX % Fold) value of greater than 75%; and/or (3) a % Fold value at 1.54 μM compound concentration (% Fold@1.54 μM) of at least 75%. In some embodiments, a PKR Activating Compound can have: (1) an AC50 value of less than 0.1 μM (e.g., compounds with AC50 values of “+++” in Table 2), 0.1-1.0 μM (e.g., compounds with AC50 values of “++” in Table 2), or 1.01-40 μM (e.g., compounds with AC50 values of “+” in Table 2); (2) a MAX % Fold of 75%-250%, 250-500%, or 75%-500%; and/or (3) a % Fold@1.54 μM of 75%-250%, 250-500%, or 75%-500%. In some embodiments, a PKR Activating Compound has (1) an AC50 value of less than 1.0 μM; (2) a MAX % Fold of 75%-500%; and/or (3) a % Fold@1.54 μM of 75%-500%.
(§2) The phosphorylation of Adenosine-5′-diphosphate (ADP) by various mutants of PKR was determined by the Kinase Glo Plus Assay (Promega) in the presence or absence of FBP [D-Fructose-1,6-diphosphate; BOC Sciences, CAS: 81028-91-3] as follows. Unless otherwise indicated, all reagents were purchased from Sigma-Aldrich. All reagents were prepared in buffer containing 50 mM Tris-HCl, 100 mM KCl, 5 mM MgCl2, and 0.01% Triton X100, 0.03% BSA, and 1 mM DTT. Enzyme and PEP [Phospho(enol) pyruvic acid] were added at 2× to all wells of an assay-ready plate containing serial dilutions of test compounds or DMSO vehicle. Final enzyme concentrations for PKR(wt), PKR(R510Q), and PKR(G332S) were 0.8 nM, 0.8 nM, and 10 nM respectively. Final PEP concentration was 100 μM. The Enzyme/PEP mixture was incubated with compounds for 30 minutes at RT before the assay was initiated with the addition of 2×ADP [Adenosine-5′-diphosphate] and KinaseGloPlus. Final concentration of ADP was 100 μM. […] For assays containing FBP, that reagent is added at 30 μM upon reaction initiation. Reactions were allowed to progress for 45 minutes at RT until luminescence was recorded by the BMG PHERAstar FS Multilabel Reader. All compounds were tested in triplicate at concentrations ranging from 42.5 μM to 2.2 nM in 0.83% DMSO.
Luminescence values were converted to % Fold increase by normalizing to the average of the DMSO control and multiplying by 100. Max, min, slope and AC50 were determined by the standard four parameter fit algorithm of ActivityBase XE Runner. Compounds were evaluated with three parameters—AC50, MAX % Fold, and % Fold@1.54 μM (FIG. 1). The AC50 value for a compound is the concentration (μM) corresponding to the midway between the maximum and minimum values of the four parameter logistic curve fit (i.e., at which the % fold increase along the four parameter logistic curve fit is halfway between MAX % Fold and MIN % Fold (% Fold Midpoint)), MAX % Fold is the highest fold increase observed at any concentration of compound, and % Fold@1.54 μM is the fold increase at a compound concentration of 1.54 μM. The parameter % Fold@1.54 μM was selected to capture elements of both the AC50 and MAX % Fold and to provide a ranking based on both potency and effect. […]

PKR(G332S) = PKR(G332S) (Homo sapiens, UniProt P30613, G332S); assay: Luminescence Biochemical Assay (Kinase Glo Plus), PKR G332S; settings: with FBP (30 μM); for AC50: read-out: A—AC50 LUM KGP FBP AC50 μM gmean
Method: as §1, §2
Luminescence values were converted to % Fold increase by normalizing to the average of the DMSO control and multiplying by 100. Max, min, slope and AC50 were determined by the standard four parameter fit algorithm of ActivityBase XE Runner. Compounds were evaluated with three parameters—AC50, MAX % Fold, and % Fold@1.54 μM (FIG. 1). […]

PKR(wt) = PKR(wt) (Homo sapiens, UniProt P30613); assay: Luminescence Biochemical Assay (Kinase Glo Plus), wild type PKR; settings: without FBP; for AC50: read-out: G—AC50 LUM KGP woFBP AC50 μM gmean
Method: as §1, §2
Luminescence values were converted to % Fold increase by normalizing to the average of the DMSO control and multiplying by 100. Max, min, slope and AC50 were determined by the standard four parameter fit algorithm of ActivityBase XE Runner. Compounds were evaluated with three parameters—AC50, MAX % Fold, and % Fold@1.54 μM (FIG. 1). The AC50 value for a compound is the concentration (μM) corresponding to the midway between the maximum and minimum values of the four parameter logistic curve fit (i.e., at which the % fold increase along the four parameter logistic curve fit is halfway between MAX % Fold and MIN % Fold (% Fold Midpoint)), MAX % Fold is the highest fold increase observed at any concentration of compound, and % Fold@1.54 μM is the fold increase at a compound concentration of 1.54 μM. The parameter % Fold@1.54 μM was selected to capture elements of both the AC50 and MAX % Fold and to provide a ranking based on both potency and effect. The compound concentration of 1.54 μM was chosen as one that can optimally differentiate the set of compounds based on the range of activities observed.
As set forth in Table 2 below, AC50 values (columns A, D, G) are defined as follows: ≤0.1 μM (+++); >0.1 μM and ≤1.0 μM (++); >1.0 μM and ≤40 μM (+); >40 μM (0). Max % FOLD values (columns B, E, H) are defined as follows: ≤75% (+); >75% and ≤250% (++); >250% and ≤500% (+++). % Fold@1.54 μM values (columns C, F, J) are defined as follows: ≤75% (+); >75% and ≤250% (++); >250% and ≤500% (+++).

PKR(G332S), sequence (P30613 whole entry G332S): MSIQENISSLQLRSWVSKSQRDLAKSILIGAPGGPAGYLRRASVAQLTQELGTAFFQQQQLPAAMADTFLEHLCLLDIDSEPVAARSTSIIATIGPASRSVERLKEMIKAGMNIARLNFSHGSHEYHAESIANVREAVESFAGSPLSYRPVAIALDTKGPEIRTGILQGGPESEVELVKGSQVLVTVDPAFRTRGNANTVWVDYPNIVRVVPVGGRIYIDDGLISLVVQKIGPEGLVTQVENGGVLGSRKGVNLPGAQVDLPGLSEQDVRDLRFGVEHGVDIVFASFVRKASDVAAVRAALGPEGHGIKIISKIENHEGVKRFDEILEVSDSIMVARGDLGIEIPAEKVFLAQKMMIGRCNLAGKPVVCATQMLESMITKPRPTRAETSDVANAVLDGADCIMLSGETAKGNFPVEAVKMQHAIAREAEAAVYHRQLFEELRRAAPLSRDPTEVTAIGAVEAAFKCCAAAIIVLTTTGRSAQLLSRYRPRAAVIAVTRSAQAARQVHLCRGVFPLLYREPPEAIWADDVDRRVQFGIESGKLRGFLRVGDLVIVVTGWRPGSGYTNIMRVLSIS
PKR(wt), sequence (P30613 whole entry): as the sequence (P30613 whole entry G332S) above, with S332G counted along it
PKR(R510Q), sequence (P30613 whole entry R510Q): as the sequence (P30613 whole entry G332S) above, with S332G, R510Q counted along it

SMILES	AC50 (PKR(R510Q)) [µM]	AC50 (PKR(wt)) [µM]	further results
Cc1nc2ccc(S(=O)(=O)N3CC4=C(CN(C(=O)Cc5ccc(Cl)cc5)C4)C3)cc2s1 [Compound 24]	1 to 40	–	–
O=C([C@H](O)c1ccccc1)N1CC2=C(C1)CN(S(=O)(=O)c1ccccn1)C2 [Compound 1, (2R)-2-hydroxy-2-phenyl-1-[5-(pyridine-2-sulfonyl)-1H,2H,3H,4H, 5H,6H-pyrrolo[3,4-c]pyrrol-2-yl]ethan-1-one]	–	≤ 0.1	B—AC50 LUM KGP FBP MAX % FOLD mean (PKR(G332S)): ++ (>75% and ≤250% (++)); C—AC50 LUM KGP FBP % Fold@1.54 μM mean (PKR(G332S); 1.54 μM compound): ++ (>75% and ≤250% (++)); H—AC50 LUM KGP woFBP MAX % FOLD mean (PKR(wt)): ++ (>75% and ≤250% (++)); J—AC50 LUM KGP woFBP % Fold@1.54 μM mean (PKR(wt); 1.54 μM compound): ++ (>75% and ≤250% (++)); E—AC50 LUM KGP woFBP MAX % FOLD mean (PKR(R510Q)): +++ (>250% and ≤500% (+++)); F—AC50 LUM KGP woFBP % Fold@1.54 μM mean (PKR(R510Q); 1.54 μM compound): ++ (>75% and ≤250% (++))
CN1CCOc2ccc(S(=O)(=O)N3CC4=C(CN(C(=O)CC5CCOCC5)C4)C3)cc21 [Compound 26]	–	1 to 40	–
C[C@@H](C(=O)N1CC2=C(C1)CN(S(=O)(=O)c1c[nH]c3c(Cl)nccc13)C2)c1ccccc1 [Compound 25]	1 to 40	–	AC50 (PKR(G332S)): 1 to 40 µM
Cc1nn(C(C)C(=O)N2CC3=C(C2)CN(S(=O)(=O)c2ccc4occc4c2)C3)cc1Cl (centres unmarked) [Compound 27]	–	1 to 40	–
CN1CCOc2ccc(S(=O)(=O)N3CC4=C(CN(C(=O)C5(c6cccc(F)c6)CC5)C4)C3)cc21 [Compound 30]	1 to 40	1 to 40	AC50 (PKR(G332S)): 1 to 40 µM
CC(=O)N1CCOc2ccc(S(=O)(=O)N3CC4=C(CN(C(=O)C(C)c5ccc(F)cc5)C4)C3)cc21 (centres unmarked) [Compound 29]	–	1 to 40	–
O=C(CC1CCS(=O)(=O)CC1)N1CC2=C(C1)CN(S(=O)(=O)c1ccc3occc3c1)C2 [Compound 28]	–	1 to 40	–
